Assay results from patent publication US20090192176A1, “1H-PYRAZOLO[3,4-D]PYRIMIDINE, PURINE, 7H-PURIN-8(9H)-ONE, 3H-[1,2,3]TRIAZOLO[4,5-D]PYRIMIDINE, AND THIENO[3,2-D]PYRIMIDINE COMPOUNDS, THEIR USE AS mTOR KINASE AND PI3 KINASE INHIBITORS, AND THEIR SYNTHESES” (Wyeth, priority 2008, published 2009).

Legend:
Human mTOR = molecular target: T1, Human mTOR (Homo sapiens, UniProt P42345); assay: mTOR kinase assay (DELFIA format, purified enzyme); assay type: biochemical; settings: His6-S6K substrate, read-out: TOR Kinase IC50
T1 construct: FLAG
Protocol: mTOR Kinase Assay Methods
Human mTOR assays (See Toral-Barza, et al. Biochem Biophys. Res. Commun. 2005 Jun. 24; 332(1):304-10) with purified enzyme are performed in 96-well plates by DELFIA format as follows. Enzymes are first diluted in kinase assay buffer (10 mM HEPES (pH 7.4), 50 mM NaCl, 50 mM β-glycerophosphate, 10 mM MnCl2, 0.5 mM DTT, 0.25 mM microcystin LR, and […]). To each well, 12 μL of the diluted enzyme is mixed briefly with 0.5 μL test inhibitor or control vehicle dimethylsulfoxide (DMSO). The kinase reaction is initiated by adding 12.5 μL kinase assay buffer containing ATP and His6-S6K to give a final reaction volume of 25 μL containing 800 ng/mL FLAG-TOR, […] and […]. The reaction plate is incubated for 2 hours (linear at 1-6 hours) at room temperature with gentle shaking and then terminated by adding 25 μL Stop buffer (20 mM HEPES (pH 7.4), 20 mM EDTA, 20 mM EGTA). The DELFIA detection of the phosphorylated (Thr-389) His6-S6K is performed at room temperature using a monoclonal anti-P(T389)-p70S6K antibody (1A5, Cell Signaling) labeled with Europium-N1-ITC (Eu) (10.4 Eu per antibody, PerkinElmer). The DELFIA Assay buffer and Enhancement solution can be purchased from PerkinElmer. 45 μL of the terminated kinase reaction mixture is transferred to a MaxiSorp plate (Nunc) containing 55 μL PBS. The His6-S6K is allowed to attach for 2 hours after which the wells are aspirated and washed once with PBS. 100 μL of DELFIA Assay buffer with 40 ng/mL Eu-P(T389)-S6K antibody is added. The antibody binding is continued for 1 hour with gentle agitation. The wells are then aspirated and washed 4 times with PBS containing 0.05% Tween-20 (PBST). 100 μL of DELFIA Enhancement solution is added to each well and the plates are read in a PerkinElmer Victor model plate reader. Data obtained is used to calculate enzymatic activity and enzyme inhibition by potential inhibitors.

PI3 Kinase α = PI3 Kinase α (Homo sapiens, UniProt P42336); assay: Fluorescence polarization assay for PI3K; assay type: biochemical
Chain of PI3 Kinase α (P42336 whole entry): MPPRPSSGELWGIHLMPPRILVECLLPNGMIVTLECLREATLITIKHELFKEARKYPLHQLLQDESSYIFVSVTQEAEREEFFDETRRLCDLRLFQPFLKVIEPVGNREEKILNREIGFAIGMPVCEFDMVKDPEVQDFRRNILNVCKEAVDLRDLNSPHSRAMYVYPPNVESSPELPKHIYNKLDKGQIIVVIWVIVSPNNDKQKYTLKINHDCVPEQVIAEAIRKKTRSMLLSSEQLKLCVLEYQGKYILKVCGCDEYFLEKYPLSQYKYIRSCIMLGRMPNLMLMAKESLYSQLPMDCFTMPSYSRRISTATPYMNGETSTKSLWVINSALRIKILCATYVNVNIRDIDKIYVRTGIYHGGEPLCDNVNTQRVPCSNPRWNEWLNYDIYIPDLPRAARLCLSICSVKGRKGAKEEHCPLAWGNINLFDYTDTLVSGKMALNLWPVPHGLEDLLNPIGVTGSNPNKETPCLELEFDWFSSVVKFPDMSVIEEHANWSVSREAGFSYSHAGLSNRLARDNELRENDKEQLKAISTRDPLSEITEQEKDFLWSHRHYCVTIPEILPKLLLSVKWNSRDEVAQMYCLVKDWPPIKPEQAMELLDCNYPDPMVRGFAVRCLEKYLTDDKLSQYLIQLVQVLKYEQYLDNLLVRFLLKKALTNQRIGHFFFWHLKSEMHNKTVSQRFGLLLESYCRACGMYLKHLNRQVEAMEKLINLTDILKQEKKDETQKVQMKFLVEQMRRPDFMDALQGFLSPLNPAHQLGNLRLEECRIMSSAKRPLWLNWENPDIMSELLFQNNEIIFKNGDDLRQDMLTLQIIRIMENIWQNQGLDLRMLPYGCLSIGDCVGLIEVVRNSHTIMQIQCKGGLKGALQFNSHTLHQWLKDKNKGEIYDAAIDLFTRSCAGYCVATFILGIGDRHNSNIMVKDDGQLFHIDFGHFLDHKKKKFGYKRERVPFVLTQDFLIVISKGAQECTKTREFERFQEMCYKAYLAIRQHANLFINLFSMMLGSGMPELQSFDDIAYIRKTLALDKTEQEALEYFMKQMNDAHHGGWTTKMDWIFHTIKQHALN
Chain of PI3 Kinase α (P27986 whole entry partner): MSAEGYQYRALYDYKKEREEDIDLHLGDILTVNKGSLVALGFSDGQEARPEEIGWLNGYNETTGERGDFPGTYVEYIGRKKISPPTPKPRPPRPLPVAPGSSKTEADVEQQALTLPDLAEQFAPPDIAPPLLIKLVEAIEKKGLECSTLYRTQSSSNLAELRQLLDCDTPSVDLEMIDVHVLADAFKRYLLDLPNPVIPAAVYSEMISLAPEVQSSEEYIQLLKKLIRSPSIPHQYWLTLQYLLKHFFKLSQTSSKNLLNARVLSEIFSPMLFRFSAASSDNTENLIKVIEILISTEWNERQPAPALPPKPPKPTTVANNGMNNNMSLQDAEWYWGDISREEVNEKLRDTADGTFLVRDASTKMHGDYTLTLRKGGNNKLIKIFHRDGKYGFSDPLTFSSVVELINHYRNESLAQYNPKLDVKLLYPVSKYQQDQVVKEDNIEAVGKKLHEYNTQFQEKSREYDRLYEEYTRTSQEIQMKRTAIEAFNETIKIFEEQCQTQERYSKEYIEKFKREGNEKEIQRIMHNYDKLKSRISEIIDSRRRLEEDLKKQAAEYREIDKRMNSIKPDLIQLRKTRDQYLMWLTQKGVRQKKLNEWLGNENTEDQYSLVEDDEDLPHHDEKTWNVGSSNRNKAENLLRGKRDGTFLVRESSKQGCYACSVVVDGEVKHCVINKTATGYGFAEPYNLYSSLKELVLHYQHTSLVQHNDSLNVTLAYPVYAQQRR
Protocol: (§1) Fluorescence Polarization Assay for PI3K
(§2) This assay is used to determine the IC50 of compounds of the present invention as it identifies inhibitors of PI3 kinase by measuring inhibition.
(§3) Reaction Buffer: 20 mM HEPES, pH 7.5, 2 mM MgCl2, 0.05% CHAPS; and 0.01% BME (added fresh) Stop/Detection Buffer: 100 mM HEPES, pH 7.5, 4 mM EDTA, 0.05% CHAPS; ATP 20 mM in water; PIP2 (diC8, cat# P-4508) 1 mM in water (MW=856.5); GST-GRP 1.75 mg/mL or 1.4 mg/mL in 10% glycerol; Red detector (TAMRA) 2.5 μM; Plate: Nunc 384 well black polypropylene fluorescence plate.
(§4) The assay is run by placing 5 μL of diluted enzyme per well, then 5 μL of diluted compound (or 9.5 μL enzyme then 0.5 μL compound in DMSO) is added and mixed. Then, 10 μL substrate is added to start the reaction. The samples are incubated 30-60 minutes, then the reaction is stopped by adding 20 μL stop/detector mix. PI3K is diluted with reaction buffer (e.g., 5 μL or 7.5 μL PI3K into 620 μL reaction buffer), and 5 μL of diluted enzyme is used per well. 5 μL reaction buffer or drug diluted in buffer (e.g., 4 μL/100 so final DMSO is 1% in reaction) is added to each. Pipetting up and down mixes the samples. Alternatively, the enzyme can be diluted to 1215 μL. In this case 9.8 μL is added per well and 0.2 μL compound is added in DMSO. To prepare 1 mL of substrate solution, 955 μL reaction buffer, 40 μL PIP2, and 2.5 μL ATP are mixed. 10 μL of substrate is added to each well to start the reaction.
(§5) Stop/detector mix is prepared by mixing 4 μL Red detector and 1.6 μL or 2.0 μL GST-GRP with 1 mL Stop buffer, which results in 10 nM probe and 70 nM GST-GRP). 20 μL of the stop/detector mix is added to each well to stop the reaction. The plates are read after 30-90 minutes keeping the red probe solutions dark. For the zero time point, stop/detector mix is added to the enzyme just before adding substrate. For an extra control, stop/detector mix is added to buffer (no enzyme) and substrate or to just buffer (no substrate). […] The recommended reaction has 0.06 μL per 20 μL (0.015 μg/20 μL) or 0.01125 μg/15 μL or 0.75 μg/mL. Plates are read on machines with filters for Tamra. The units are mP with no enzyme controls reading app 190-220 mP units. Fully active enzyme reduces fluorescence polarization down to 70-100 mP after 30 minutes. An active compound raises the mP values halfway to control or to 120-150 mP units.

PI3 Kinase γ = PI3 Kinase γ (Homo sapiens, UniProt P48736); assay: Fluorescence polarization assay for PI3K; assay type: biochemical
Chain of PI3 Kinase γ (P48736 whole entry): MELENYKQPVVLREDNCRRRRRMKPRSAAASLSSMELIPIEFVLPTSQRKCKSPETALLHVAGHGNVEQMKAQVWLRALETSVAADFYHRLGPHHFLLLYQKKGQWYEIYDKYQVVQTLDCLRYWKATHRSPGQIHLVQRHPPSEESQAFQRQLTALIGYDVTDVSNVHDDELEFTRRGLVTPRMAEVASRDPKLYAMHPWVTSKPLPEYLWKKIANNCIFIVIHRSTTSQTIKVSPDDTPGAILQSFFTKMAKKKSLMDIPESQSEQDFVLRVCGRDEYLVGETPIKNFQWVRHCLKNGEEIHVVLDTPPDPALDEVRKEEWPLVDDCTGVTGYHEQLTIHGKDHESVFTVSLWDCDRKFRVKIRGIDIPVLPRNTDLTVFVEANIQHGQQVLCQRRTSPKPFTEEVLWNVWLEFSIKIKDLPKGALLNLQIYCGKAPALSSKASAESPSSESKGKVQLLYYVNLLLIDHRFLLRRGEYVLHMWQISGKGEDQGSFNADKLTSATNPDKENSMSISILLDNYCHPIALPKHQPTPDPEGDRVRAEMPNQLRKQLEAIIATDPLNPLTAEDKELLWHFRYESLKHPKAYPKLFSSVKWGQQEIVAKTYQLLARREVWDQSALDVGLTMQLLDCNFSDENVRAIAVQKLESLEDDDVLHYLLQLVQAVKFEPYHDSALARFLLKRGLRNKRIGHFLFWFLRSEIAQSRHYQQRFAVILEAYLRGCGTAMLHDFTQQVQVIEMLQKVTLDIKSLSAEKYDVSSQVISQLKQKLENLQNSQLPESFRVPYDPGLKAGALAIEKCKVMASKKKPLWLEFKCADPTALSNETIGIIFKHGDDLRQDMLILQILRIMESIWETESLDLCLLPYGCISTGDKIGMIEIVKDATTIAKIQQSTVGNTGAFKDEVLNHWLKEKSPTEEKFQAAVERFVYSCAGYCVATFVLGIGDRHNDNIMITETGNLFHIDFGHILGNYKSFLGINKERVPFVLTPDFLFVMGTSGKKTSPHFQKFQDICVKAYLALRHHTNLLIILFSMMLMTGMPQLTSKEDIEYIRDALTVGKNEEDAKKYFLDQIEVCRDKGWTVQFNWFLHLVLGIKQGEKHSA
Protocol: as §1, §2, §3, §4, §5

MDA468 = assay: In vitro cell culture growth assay (MTS); assay type: cell-based; settings: Homo sapiens, 72 h, breast line MDA468, three days after drug treatment
Protocol: In Vitro Cell Culture Growth Assay Methods:
Human tumor cell lines used include prostate lines LNCap and PC3MM2, breast lines MDA468, MCF7, renal line HTB44 (A498), colon line HCT116, and ovarian line OVCAR3. Cells were plated in 96-well culture plates. One day following plating, the inhibitors were added to cells. Three days after drug treatment, viable cell densities were determined by metabolic conversion (by viable cells) of the dye MTS, a well-established cell proliferation assay. The assays were performed using an assay kit purchased from Promega Corp. (Madison, Wis.) following the protocol supplied with the kit. The MTS assay results were read in a 96-well plate reader by measuring absorbance at 490 nm. The effect of each treatment was calculated as percent of control growth relative to the vehicle-treated cells grown in the same culture plate. The drug concentration that conferred 50% inhibition of growth was determined as IC50 (μg/ml).

LNCap = assay: In vitro cell culture growth assay (MTS); assay type: cell-based; settings: Homo sapiens, 72 h, prostate line LNCap, three days after drug treatment

Row | IC50 (Human mTOR) [nM] | IC50 (PI3 Kinase α) [nM] | IC50 (PI3 Kinase γ) [nM] | IC50 (LNCap) [nM] | SMILES | IC50 (MDA468) [nM]
1 | 17 | 48 | 1890 | 2800 | Oc1cccc(-c2nc(C3=CCOCC3)c3cnn(-c4ccccc4)c3n2)c1 [Compound 1, 3-[4-(3,6-dihydro-2H-pyran-4-yl)-1-phenyl-1H-pyrazolo[3,4-d]pyrimidin-6-yl]phenol] | 8250
2 | 670 | 855 | > 10000 | 11000 | Oc1cccc(-c2nc(C3CCOCC3)c3cnn(-c4ccccc4)c3n2)c1 [Compound 2, 3-[1-phenyl-4-(tetrahydro-2H-pyran-4-yl)-1H-pyrazolo[3,4-d]pyrimidin-6-yl]phenol] | 50000
3 | 230 | 3090 | 3020 | 5000 | CC(=O)Nc1ccc(-c2nc(C3=CCOCC3)c3cnn(C4CCN(Cc5ccccc5)CC4)c3n2)cc1 [Compound 3, N-{4-[1-(1-benzylpiperidin-4-yl)-4-(3,6-dihydro-2H-pyran-4-yl)-1H-pyrazolo[3,4-d]pyrimidin-6-yl]phenyl}acetamide] | 11000
4 | 17 | 2820 | 3220 | 900 | CNC(=O)Nc1ccc(-c2nc(C3=CCOCC3)c3cnn(C4CCN(Cc5cccnc5)CC4)c3n2)cc1 [Compound 4, 1-(4-{4-(3,6-dihydro-2H-pyran-4-yl)-1-[1-(pyridin-3-ylmethyl)piperidin-4-yl]-1H-pyrazolo[3,4-d]pyrimidin-6-yl}phenyl)-3-methylurea] | 4200
5 | 8.4 | 2100 | 1180 | 2800 | CNC(=O)Nc1ccc(-c2nc(C3=CCOCC3)c3cnn(C4CCN(C(=O)c5cccnc5)CC4)c3n2)cc1 [Compound 5, 1-(4-{4-(3,6-dihydro-2H-pyran-4-yl)-1-[1-(pyridin-3-ylcarbonyl)piperidin-4-yl]-1H-pyrazolo[3,4-d]pyrimidin-6-yl}phenyl)-3-methylurea] | 4000
6 | 2.4 | 212 | 3030 | 260 | CNC(=O)Nc1ccc(-c2nc(C3=CCOCC3)c3cnn(CC(F)(F)F)c3n2)cc1 [Compound 6, 1-{4-[4-(3,6-dihydro-2H-pyran-4-yl)-1-(2,2,2-trifluoroethyl)-1H-pyrazolo[3,4-d]pyrimidin-6-yl]phenyl}-3-methylurea] | 950
7 | 1.4 | 2330 | 1010 | 72 | O=C(NCCF)Nc1ccc(-c2nc(C3=CCOCC3)c3cnn(CC(F)(F)F)c3n2)cc1 [Compound 7, 1-{4-[4-(3,6-dihydro-2H-pyran-4-yl)-1-(2,2,2-trifluoroethyl)-1H-pyrazolo[3,4-d]pyrimidin-6-yl]phenyl}-3-(2-fluoroethyl)urea] | 220
8 | > 4000 | 574 | 2060 |  | OCc1cccc(-c2nc(C3=CCOCC3)c3ncn(C4CCNCC4)c3n2)c1 [Compound 43, {3-[6-(3,6-dihydro-2H-pyran-4-yl)-9-piperidin-4-yl-9H-purin-2-yl]phenyl}methanol] | 
9 | 4800 | 628 | 2630 |  | Oc1cncc(-c2nc(C3=CCOCC3)c3ncn(C4CCNCC4)c3n2)c1 [Compound 44, 5-[6-(3,6-dihydro-2H-pyran-4-yl)-9-piperidin-4-yl-9H-purin-2-yl]pyridin-3-ol] | 
10 | > 4000 | 1350 | 9000 |  | OCc1cccc(-c2nc(C3=CCOCC3)c3ncn(CCN4CCCCC4)c3n2)c1 [Compound 45, {3-[6-(3,6-dihydro-2H-pyran-4-yl)-9-(2-piperidin-1-ylethyl)-9H-purin-2-yl]phenyl}methanol] | 
11 | > 4000 | 1350 | 15000 |  | Oc1cccc(-c2nc(C3=CCOCC3)c3ncn(CCN4CCCCC4)c3n2)c1 [Compound 46, 3-[6-(3,6-dihydro-2H-pyran-4-yl)-9-(2-piperidin-1-ylethyl)-9H-purin-2-yl]phenol] | 
12 | 230 | 998 | 1500 |  | Oc1cccc(-c2nc(C3=CCOCC3)c3nnn(C4CCN(Cc5ccccc5)CC4)c3n2)c1 [Compound 47, 3-[3-(1-benzylpiperidin-4-yl)-7-(3,6-dihydro-2H-pyran-4-yl)-3H-[1,2,3]triazolo[4,5-d]pyrimidin-5-yl]phenol] | 
13 | 32 | 93 | 257 |  | Oc1cccc(-c2nc(C3=CCOCC3)c3nn[nH]c3n2)c1 [Compound 48, 3-[7-(3,6-dihydro-2H-pyran-4-yl)-3H-[1,2,3]triazolo[4,5-d]pyrimidin-5-yl]phenol] | 
14 | 340 | 390 | 1040 |  | OCc1cccc(-c2nc(C3=CCOCC3)c3nn[nH]c3n2)c1 [Compound 49, {3-[7-(3,6-dihydro-2H-pyran-4-yl)-3H-[1,2,3]triazolo[4,5-d]pyrimidin-5-yl]phenyl}methanol] | 
15 | 360 | 78 | 100 |  | Oc1cncc(-c2nc(C3=CCOCC3)c3nn[nH]c3n2)c1 [Compound 50, 5-[7-(3,6-dihydro-2H-pyran-4-yl)-3H-[1,2,3]triazolo[4,5-d]pyrimidin-5-yl]pyridin-3-ol] | 
16 | 280 | 169 | 414 |  | O=c1[nH]c2nc(-c3cccc(O)c3)nc(C3=CCOCC3)c2[nH]1 [Compound 67, 6-(3,6-dihydro-2H-pyran-4-yl)-2-(3-hydroxyphenyl)-7,9-dihydro-8H-purin-8-one] | > 10000
